Measurements reported in ChEMBL document CHEMBL3885881, “DrugMatrix”.

Species on record: Rattus norvegicus
Assay: DrugMatrix - Regimen: Daily Repeat
Assay type: toxicity, organism-based, Sprague-Dawley
Design: regimen Daily Repeat, gender Male, age 6-8 weeks
Conditions: in vivo, po, route oral GAVAGE, vehicle 100 % WATER; for ABSOLUTE BASOPHIL / ABSOLUTE EOSINOPHIL / ABSOLUTE LYMPHOCYTE / ABSOLUTE MONOCYTE / ABSOLUTE SEGMENTED NEUTROPHIL / BASOPHIL / EOSINOPHIL / ERYTHROCYTE COUNT / HEMATOCRIT / HEMOGLOBIN / LEUKOCYTE COUNT / LYMPHOCYTE / MEAN CORPUSCULAR HEMOGLOBIN / MEAN CORPUSCULAR HEMOGLOBIN CONCENTRATION / MEAN CORPUSCULAR VOLUME / MONOCYTE / NEUTROPHIL / NUCLEATED RED BLOOD CELLS / PLATELET COUNT: tissue Blood; for ALANINE AMINOTRANSFERASE / ALBUMIN / ALKALINE PHOSPHATASE / ASPARTATE AMINOTRANSFERASE / BLOOD UREA NITROGEN / CARBON DIOXIDE / CHLORIDE / CHOLESTEROL / CREATINE PHOSPHOKINASE / CREATININE / GLUCOSE / LACTATE DEHYDROGENASE / LIPASE / PHOSPHORUS / POTASSIUM / SODIUM / TOTAL BILIRUBIN / TOTAL PROTEIN / URIC ACID: tissue Plasma
[1] = 11 mg/kg, 120 h, dose level Low, time 5 day
[2] = 1100 mg/kg, 72 h, dose level High, time 3 day
[3] = 1100 mg/kg, 120 h, dose level High, time 5 day

Question: Which results are given for CNS(=O)(=O)Cc1ccc2[nH]cc(CCN(C)C)c2c1?
Answer: ABSOLUTE BASOPHIL [1]: 0 CELLS/uL; ABSOLUTE EOSINOPHIL [1]: 33.33 CELLS/uL; ABSOLUTE LYMPHOCYTE [1]: 13548.33 CELLS/uL; ABSOLUTE MONOCYTE [1]: 177 CELLS/uL; ABSOLUTE SEGMENTED NEUTROPHIL [1]: 608 CELLS/uL; BASOPHIL [1]: 0%; EOSINOPHIL [1]: 0.33%; ERYTHROCYTE COUNT [1]: 5.94 x10E6/uL; HEMATOCRIT [1]: 38.1%; HEMOGLOBIN [1]: 14.67 G/DL; LEUKOCYTE COUNT [1]: 14.37 x10E3/uL; LYMPHOCYTE [1]: 94%; MEAN CORPUSCULAR HEMOGLOBIN [1]: 24.67 pg; MEAN CORPUSCULAR HEMOGLOBIN CONCENTRATION [1]: 38.53 G/DL; MEAN CORPUSCULAR VOLUME [1]: 64.03 fL; MONOCYTE [1]: 1.33%; NEUTROPHIL [1]: 4.33%; NUCLEATED RED BLOOD CELLS [1]: 0 /100WBC; PLATELET COUNT [1]: 1140 x10E3/uL; ALANINE AMINOTRANSFERASE [1]: 51 u/L; ALBUMIN [1]: 4.23 G/DL; ALKALINE PHOSPHATASE [1]: 398.33 u/L; ASPARTATE AMINOTRANSFERASE [1]: 85.33 u/L; BLOOD UREA NITROGEN [1]: 15.67 mg/dL; CARBON DIOXIDE [1]: 31.67 mmol/L; CHLORIDE [1]: 101.67 MEQ/L; CHOLESTEROL [1]: 66 mg/dL; CREATINE PHOSPHOKINASE [1]: 235 u/L; CREATININE [1]: 0.17 mg/dL; GLUCOSE [1]: 139.67 mg/dL; LACTATE DEHYDROGENASE [1]: 145 u/L; LIPASE [1]: 10.33 u/L; PHOSPHORUS [1]: 11.03 mg/dL; POTASSIUM [1]: 6.19 MEQ/L; SODIUM [1]: 146.47 MEQ/L; TOTAL BILIRUBIN [1]: 0.17 mg/dL; TOTAL PROTEIN [1]: 6.37 G/DL; URIC ACID [1]: 0.83 mg/dL; ABSOLUTE BASOPHIL [2]: 0 CELLS/uL; ABSOLUTE EOSINOPHIL [2]: 0 CELLS/uL; ABSOLUTE LYMPHOCYTE [2]: 8603 CELLS/uL; ABSOLUTE MONOCYTE [2]: 74.33 CELLS/uL; ABSOLUTE SEGMENTED NEUTROPHIL [2]: 922.67 CELLS/uL; BASOPHIL [2]: 0%; EOSINOPHIL [2]: 0%; ERYTHROCYTE COUNT [2]: 5.83 x10E6/uL; HEMATOCRIT [2]: 35.8%; HEMOGLOBIN [2]: 13.87 G/DL; LEUKOCYTE COUNT [2]: 9.6 x10E3/uL; LYMPHOCYTE [2]: 89.67%; MEAN CORPUSCULAR HEMOGLOBIN [2]: 23.8 pg; MEAN CORPUSCULAR HEMOGLOBIN CONCENTRATION [2]: 38.73 G/DL; MEAN CORPUSCULAR VOLUME [2]: 61.43 fL; MONOCYTE [2]: 0.67%; NEUTROPHIL [2]: 9.67%; NUCLEATED RED BLOOD CELLS [2]: 0 /100WBC; PLATELET COUNT [2]: 1087.33 x10E3/uL; ALANINE AMINOTRANSFERASE [2]: 50.33 u/L; ALBUMIN [2]: 4.07 G/DL; ALKALINE PHOSPHATASE [2]: 367.67 u/L; ASPARTATE AMINOTRANSFERASE [2]: 86 u/L; BLOOD UREA NITROGEN [2]: 12.67 mg/dL; CARBON DIOXIDE [2]: 30 mmol/L; CHLORIDE [2]: 101.67 MEQ/L; CHOLESTEROL [2]: 70.33 mg/dL; CREATINE PHOSPHOKINASE [2]: 362.67 u/L; CREATININE [2]: 0.2 mg/dL; GLUCOSE [2]: 136.67 mg/dL; LACTATE DEHYDROGENASE [2]: 189.67 u/L; LIPASE [2]: 10.33 u/L; PHOSPHORUS [2]: 10.73 mg/dL; POTASSIUM [2]: 5.86 MEQ/L; SODIUM [2]: 145.13 MEQ/L; TOTAL BILIRUBIN [2]: 0.13 mg/dL; TOTAL PROTEIN [2]: 6.13 G/DL; URIC ACID [2]: 0.7 mg/dL; ABSOLUTE BASOPHIL [3]: 0 CELLS/uL; ABSOLUTE EOSINOPHIL [3]: 40.67 CELLS/uL; ABSOLUTE LYMPHOCYTE [3]: 8480 CELLS/uL; ABSOLUTE MONOCYTE [3]: 117.33 CELLS/uL; ABSOLUTE SEGMENTED NEUTROPHIL [3]: 862 CELLS/uL; BASOPHIL [3]: 0%; EOSINOPHIL [3]: 0.33%; ERYTHROCYTE COUNT [3]: 5.92 x10E6/uL; HEMATOCRIT [3]: 37.33%; HEMOGLOBIN [3]: 14.3 G/DL; LEUKOCYTE COUNT [3]: 9.5 x10E3/uL; LYMPHOCYTE [3]: 89.67%; MEAN CORPUSCULAR HEMOGLOBIN [3]: 24.2 pg; MEAN CORPUSCULAR HEMOGLOBIN CONCENTRATION [3]: 38.27 G/DL; MEAN CORPUSCULAR VOLUME [3]: 63.17 fL; MONOCYTE [3]: 1%; NEUTROPHIL [3]: 9%; NUCLEATED RED BLOOD CELLS [3]: 0 /100WBC; PLATELET COUNT [3]: 1190.33 x10E3/uL; ALANINE AMINOTRANSFERASE [3]: 47.67 u/L; ALBUMIN [3]: 4.07 G/DL; ALKALINE PHOSPHATASE [3]: 329 u/L; ASPARTATE AMINOTRANSFERASE [3]: 87.67 u/L; BLOOD UREA NITROGEN [3]: 15.67 mg/dL; CARBON DIOXIDE [3]: 31 mmol/L; CHLORIDE [3]: 100 MEQ/L; CHOLESTEROL [3]: 65.67 mg/dL; CREATINE PHOSPHOKINASE [3]: 337 u/L; CREATININE [3]: 0.17 mg/dL; GLUCOSE [3]: 135.33 mg/dL; LACTATE DEHYDROGENASE [3]: 119.67 u/L; LIPASE [3]: 10.33 u/L; PHOSPHORUS [3]: 9.67 mg/dL; POTASSIUM [3]: 6.24 MEQ/L; SODIUM [3]: 145.07 MEQ/L; TOTAL BILIRUBIN [3]: 0.2 mg/dL; TOTAL PROTEIN [3]: 6.2 G/DL; URIC ACID [3]: 0.83 mg/dL
